Assay results taken from the NIST ThermoML archive (doi:10.1016/j.jct.2018.02.022).

Experiment: xn = mol fraction of the nth substance listed
Settings: 92.3 kPa, Liquid; for viscosity: Concentric cylinders viscometry; for speed of sound: Frequency=3 MHz, Single path-length method; for mass density: Vibrating tube method

OCCO [1,2-ethanediol] + O
Settings | mass density, 303.15 K [kg/m3] | mass density, 308.15 K [kg/m3] | speed of sound, 303.15 K [m/s] | speed of sound, 308.15 K [m/s] | viscosity, 303.15 K [mPa·s] | viscosity, 308.15 K [mPa·s]
x1 = 0.0101 | 1000.04 | 998.43 | 1523.1 | 1532.7 | – | –
x1 = 0.0201 | 1004 | 1002.32 | 1536.3 | 1544.8 | – | –
x1 = 0.0302 | 1007.88 | 1006.13 | 1549.1 | 1556.6 | – | –
x1 = 0.0407 | 1011.76 | 1009.9 | 1561.7 | 1568.1 | – | –
x1 = 0.0494 | 1014.98 | 1013.02 | – | – | 1.164 | 1.059
x1 = 0.0506 | 1015.24 | 1013.36 | 1573 | 1578.4 | – | –
x1 = 0.0605 | 1018.73 | 1016.68 | 1583.6 | 1588 | – | –
x1 = 0.0704 | 1022.12 | 1019.92 | 1594 | 1597.4 | – | –
x1 = 0.0801 | 1025.1 | 1022.9 | 1602.9 | 1605.7 | – | –
x1 = 0.0905 | 1028.31 | 1026.05 | 1612.5 | 1614.3 | – | –
x1 = 0.0986 | 1030.68 | 1028.37 | – | – | 1.555 | 1.38
x1 = 0.0997 | 1031.05 | 1028.71 | 1620.2 | 1621.3 | – | –
x1 = 0.1483 | 1043.73 | 1041.14 | – | – | 1.99 | 1.741
x1 = 0.1493 | 1044.06 | 1041.45 | 1654.1 | 1652 | – | –
x1 = 0.1985 | 1054.47 | 1051.74 | 1676.9 | 1672.2 | – | –
x1 = 0.2072 | 1056.16 | 1053.32 | – | – | 2.564 | 2.226
x1 = 0.2466 | 1063 | 1060.02 | – | – | 2.965 | 2.572
x1 = 0.2487 | 1063.38 | 1060.37 | 1690.5 | 1684.2 | – | –
x1 = 0.298 | 1070.45 | 1067.33 | – | – | 3.541 | 3.066
x1 = 0.2998 | 1070.7 | 1067.57 | 1698.3 | 1690.6 | – | –
x1 = 0.3318 | 1074.59 | 1071.38 | 1700.5 | 1692.2 | – | –
x1 = 0.3399 | 1075.52 | 1072.31 | – | – | 4.029 | 3.48
x1 = 0.3921 | 1080.8 | 1077.51 | – | – | 4.67 | 4.026
x1 = 0.3981 | 1081.34 | 1077.99 | 1701.1 | 1691.7 | – | –
x1 = 0.4446 | 1085.21 | 1081.86 | – | – | 5.349 | 4.605
x1 = 0.4521 | 1085.69 | 1082.37 | 1698.9 | 1688.8 | – | –
x1 = 0.4934 | – | 1085.26 | 1695.7 | 1685.2 | – | –
x1 = 0.5007 | – | 1085.73 | – | – | 6.109 | 5.245
x1 = 0.5485 | 1091.97 | – | – | – | 6.771 | 5.811
x1 = 0.552 | 1092.19 | – | 1690.2 | 1679.4 | – | –
x1 = 0.5846 | 1093.94 | 1090.48 | 1686.7 | 1675.8 | – | –
x1 = 0.6004 | 1094.63 | 1091.17 | – | – | 7.519 | 6.445
x1 = 0.6451 | 1096.63 | 1093.16 | – | – | 8.173 | 7.002
x1 = 0.6481 | 1096.77 | 1093.29 | 1679.9 | 1668.8 | – | –
x1 = 0.6773 | 1097.96 | 1094.48 | 1676.6 | 1665.3 | – | –
x1 = 0.7012 | 1098.83 | 1095.34 | – | – | 9.085 | 7.725
x1 = 0.7421 | 1100.21 | 1096.71 | 1669.4 | 1658 | – | –
x1 = 0.7435 | 1100.29 | 1096.79 | – | – | 9.808 | 8.27
x1 = 0.7811 | 1101.44 | 1097.94 | 1665 | 1653.6 | – | –
x1 = 0.7907 | 1101.74 | 1098.23 | – | – | 10.55 | 8.857
x1 = 0.8497 | – | 1099.81 | 1657.7 | 1646.1 | – | –
x1 = 0.8505 | – | 1099.84 | – | – | 11.54 | 9.617
x1 = 0.89 | 1104.3 | 1100.78 | – | – | 12.15 | 10.11
x1 = 0.9002 | 1104.55 | 1101.03 | 1652.6 | 1640.9 | – | –
x1 = 0.9059 | 1104.67 | 1101.15 | 1652.1 | 1640.4 | – | –
x1 = 0.912 | 1104.78 | 1101.26 | 1651.6 | 1639.9 | – | –
x1 = 0.9299 | 1105.19 | 1101.66 | 1649.8 | 1638.1 | – | –
x1 = 0.9413 | 1105.43 | 1101.91 | 1648.7 | 1637 | – | –
x1 = 0.9495 | 1105.62 | 1102.1 | 1647.8 | 1636.1 | – | –
x1 = 0.9532 | 1105.68 | 1102.16 | – | – | 13.12 | 10.89
x1 = 0.9546 | 1105.72 | 1102.2 | 1647.5 | 1635.8 | – | –
x1 = 0.9681 | 1105.98 | 1102.46 | 1646.3 | 1634.6 | – | –
x1 = 0.9789 | 1106.18 | – | 1645.4 | 1633.6 | – | –
x1 = 0.9893 | 1106.39 | – | 1644.3 | 1632.5 | – | –
x1 = 1 | 1106.71 | – | 1642.9 | 1631.2 | 13.87 | 11.48
